Measurements from patent US6642365B1, “Anti-(retro)viral conjugates of saccharides and acetamidino or guanidino compounds” (Yeda Research and Development Co. Ltd., priority 2001, dated 2003).

How the values were obtained:
[1] = test system: TAR RNA; experiment: L-arginine-Amberlite affinity column elution of TAR RNA; type: binding, HIV-1; details: concentration that elutes 50% of TAR RNA from L-arginine-Amberlite affinity column
Method: (§1) The model Tat peptide (R52: […]) was prepared by the Weizmann Institute Chemical Services and was purified by reverse phase HPLC (C-18) (Lapidot et al., 1995). […] The RNA was transcriptionally labeled with α-^32P UTP, purified on a 12% polyacrylamide/7M urea gel (19:1 acrylamide:bis-acrylamide) and was eluted from the gel by 0.5M ammonium acetate, 10 mM magnesium acetate, 1 mM EDTA and 0.1% SDS. The sample was subjected to phenol extraction and the RNA was precipitated from 70% ethanol. Purified RNA was dissolved in diethyl pyrocarbonate-treated water (DEPC water), its concentration was determined by UV absorption at 260 nm and the specific radioactivity was determined by scintillation counting on a LS 1701 “Bruker” counter.
The L-arginine-Amberlite resin was prepared as follows: Carboxyl groups of Amberlite IRC-50 resin were covalently modified with ethanolamine using 1-(3-dimethylaminopropyl) 3-ethylcarbodiimide, a water-soluble coupler. The hydroxy ethyleneamide resin obtained was washed and dried, and L-arginine (12-16 μmols per ml of resin) was coupled to the hydroxy groups of the resin via an isourea moiety using a standard cyanogen bromide protocol. The final concentration of arginine residues was 12-16 μmol per ml of resin. The swollen L-arginino-Amberlite resin (200 μl) was packed into a plastic mini-column and equilibrated with buffer containing 40 mM Tris HCl, pH 7.5, 250 mM NaCl, 0.5 mM EDTA and 5 mM MgCl2 (buffer A). Approximately 1 ng of ^32P-UTP labeled TAR RNA in buffer A was loaded on the column. The column was eluted 3 to 5 times with 400 μl portions of buffer A, until no radioactivity was detected in the eluent. […] Each of the test compounds was dissolved in buffer A and passed through the column in 300 μl portions. Radioactivity of the eluates was determined by scintillation counting on a LS 1701 “Bruker” counter. CE50 values, the concentrations of inhibitors eluting 50% of the radioactive material from the column, were determined.

[2] = molecular target: Tat-TAR interaction; experiment: Gel-shift inhibition of Tat R52 peptide binding to TAR RNA; set-up: species or system HIV-1; details: for Ki: CI50 normalized to the conditions of Tao and Frankel, 1992, read-out: apparent Ki; for IC50: TAR RNA 6 nM, 60 nM Tat R52, read-out: CI50 (the source's name)
Method: The model Tat peptide (R52: […]) was prepared by the Weizmann Institute Chemical Services and was purified by reverse phase HPLC (C-18) (Lapidot et al., 1995). A 31-nt TAR RNA fragment (5′-GGCCAGAUCUGAGCCUGGGAGCUCUCUGGCC-3′) containing the sequence 18-44 of the HIV LTR (Aboul-Ela et al., 1995) was transcribed in vitro by T7 RNA polymerase (Promega) from a synthetic single strand DNA template containing the 17 base double-stranded T7 promoter (both DNA oligonucleotides were prepared by the Weizmann Institute Chemical Services). The RNA was transcriptionally labeled with α-^32P UTP, purified on a 12% polyacrylamide/7M urea gel (19:1 acrylamide:bis-acrylamide) and was eluted from the gel by 0.5M ammonium acetate, 10 mM magnesium acetate, 1 mM EDTA and 0.1% SDS. The sample was subjected to phenol extraction and the RNA was precipitated from 70% ethanol. Purified RNA was dissolved in diethyl pyrocarbonate-treated water (DEPC water), its concentration was determined by UV absorption at 260 nm and the specific radioactivity was determined by scintillation counting on a LS 1701 “Bruker” counter.
To study the affinity of the test compounds to TAR, gel-shift and gel-shift inhibition experiments were performed. The binding reaction mixtures (20 μl) contained ^32P-labeled TAR (18-44) RNA oligonucleotide (3-6 nM) and Tat R52 peptide (35-75 nM) in a binding buffer (10 mM Tris-HCl pH 7.5, 70 mM NaCl, 0.2 mM EDTA and 5% glycerol). The reaction mixtures were incubated for 10 minutes on ice and resolved by electrophoresis on a 10% non-denaturing polyacrylamide gel (40:1 acrylamide:bis-acrylamide) at 200V, for 3 h at 4° C. Gels were dried and visualized by autoradiography. Quantitations were obtained by optical densitometry of films. Alternatively, results were visualized by exposing the wet gels to Fuji phosphoimager plates, which were read on a “Storm 820” (Molecular Dynamics) phosphoimager. Different concentrations of TAR RNA (6,12 and 20 nM) were titrated with various concentrations of Tat R52 in the binding reactions.
Binding inhibition by the monosaccharide derivatives was measured by adding several concentrations of each compound to reaction mixtures containing 60 nM Tat 52 and 6 nM ^32P TAR, attaining 100% binding of Tat TAR in the absence of inhibitors (Lapidot et al., 1995).

[3] = test system: HIV-1 NL4-3; experiment: Virus-binding assay, p24 antigen bound to MT-4 cells; type: cell-based; details: 1 hour at 37° C.; dose dependent
Method: MT4 cells (5×10^5) were incubated with supernatant containing 1×10^5 pg of p24 antigen of wild type HIV-1 in the presence of different concentrations of the test compound. One hour after infection, cells were washed 3 times with PBS and p24 antigen bound to the cells was determined by a commercial ELISA test (Coulter, Spain).

[4] = test system: TAR RNA; experiment: Gel-shift binding to TAR RNA; set-up: species or system HIV-1
Method: as §1
To study the affinity of the test compounds to TAR, gel-shift and gel-shift inhibition experiments were performed. The binding reaction mixtures (20 μl) contained ^32P-labeled TAR (18-44) RNA oligonucleotide (3-6 nM) and Tat R52 peptide (35-75 nM) in a binding buffer (10 mM Tris-HCl pH 7.5, 70 mM NaCl, 0.2 mM EDTA and 5% glycerol). The reaction mixtures were incubated for 10 minutes on ice and resolved by electrophoresis on a 10% non-denaturing polyacrylamide gel (40:1 acrylamide:bis-acrylamide) at 200V, for 3 h at 4° C. Gels were dried and visualized by autoradiography. Quantitations were obtained by optical densitometry of films. Alternatively, results were visualized by exposing the wet gels to Fuji phosphoimager plates, which were read on a “Storm 820” (Molecular Dynamics) phosphoimager. […]
Binding of aminoglycoside-arginine conjugates (AAC) to TAR RNA was measured by adding varying concentrations of each conjugate to reaction mixtures (20 μl) which contained 12 nM ^32P-labeled TAR RNA. The reactions were analyzed as described above.

[5] = test system: TAR RNA; experiment: RNase A footprinting of TAR RNA; type: binding, HIV-1
Method: In a typical experiment 10 μl of 5 mM cacodylate buffer pH 6.5, containing 25 mM KCl and 50-100 ng 5′ ^32P-labeled TAR RNA (approximately 0.5-1 μM) were incubated with 200 pM RNase A (Sigma) at room temperature for 10 minutes in the presence of Tat R52 and the conjugates of the invention at various concentrations. In the competition experiments, the mixture was supplemented with 0.5 μg yeast tRNA (Sigma). After the incubation, 10 μl of formamide/bromphenol blue loading buffer was added to the samples. The samples were heated to 80° C. for 2 min and were resolved by electrophoresis on 40 cm×0.8 mm 20% polyacrylamide denaturing gel (7M urea) for 3 hours at 55° C. The results were visualized by a phosphoimager as described above and quantitated using ImageQuant software.
TAR RNA and RNase A concentrations were established by co-titration. To produce a “single-hit” kinetics conditions, 1 μM TAR versus 200 pM RNase A were selected. Tat R52 and AAC concentrations were determined by titration. […] RNase A cleaved TAR RNA in an uneven manner (FIG. 4A., lane 2). The most susceptible regions for cleavage were the single-stranded loop, nucleotides U31-G34 as well as C24 and U25 of the bulge. Strong cleavage was also observed at G21-G41 and A20-U42 pairs (lower stem). Binding of R52 (2-4 μM) caused a weakening of the bands in the upper stem region, (G26-C39, A27-C38, as well as U40) (FIG. 4A., lanes 3, 4). At 4 μM R52, the cleavage at G34 (loop) was enhanced, as well as a certain enhancement of bands A20, G21, U23 and U25 was observed. Remarkably, the band corresponding to the R52-TAR complex still was observed on the gels even after electrophoresis under strongly denaturing conditions. In the presence of R4K (10-20 μM), the upper stem (G26-C29), the lower stem and the bulge (G21-U23, partially C24 and U25) were protected as well as C38, C39 and U40. Cleavage at C19 and A20 of the lower stem and C30, G33 and G34 of the loop was enhanced by 10 μM R4K, whereas with 20 μM R4K the protection of C30, G34 and A20-G21 was observed (FIG. 4A., lanes 5, 6). […] Cleavages at C19-A20 in the lower stem as well as at G30 and G34 in the loop were observed (FIG. 4A., lanes 7, 8). In the presence of GB4K (20 μM) no significant protection was observed.

[6] = test system: equine infectious anemia virus (EIAV); experiment: Antiviral activity in EIAV-infected ED fibroblasts; type: cell-based; details: 100-250 μM
Method: Both equine dermal fibroblasts (ED) and Equine Infectious Anemia Virus (EIAV), Wyoming isolate (Malmquist et al., 1973) were gifts from Profs. A. Yaniv and A. Gazit, from the Sackler Medical School of the Tel-Aviv University, Israel. ED cells were plated on plastic 6-well tissue culture plates (Nunclone) at density of […] per well in 2 ml of DMEM/10% FCS (fetal calf serum). The medium was removed after 12-20 hours and the cells were inoculated for 2 hours with 0.5 ml DMEM/10% FCS containing 5×10^6 pfu (plaque forming units) of EIAV and 10 μg/ml of polybrene (hexadimetrine bromide, Sigma) (Carpenter and Chesebro, 1989). Following the incubation, another 2.5 ml of DMEM/10% FCS was added to each well. […] Every […], 1.2 ml samples of the medium were collected and replaced with same amount of medium, containing radioactive uridine and the tested. The samples were clarified from cell debris by spinning at 12000 rpm for 5 minutes on the Eppendorf centrifuge. Viral particles from the clarified supernatants were collected by ultracentrifugation at 75000 rpm, 4° C. on the Beckman TL 100 centrifuge using TLA 100.2 rotor (Cheevers et al., 1977). The supernatants were carefully discarded and the pellet was resuspended in 200 μl of 1% SDS/5% Tritone X-100, mixed with 1 ml Ultima Gold scintillation liquid (Packard) and counted on LS 1701 Bruker scintillation counter. Typical duration of the experiment was 15 days; EIAV growth curves in the presence of various concentrations of the conjugates in the medium were obtained. Development of the cytopathic effect (cpe) in the infected ED cells was monitored by light microscopy.
Equine infectious anemia virus (EIAV) of Wyoming strain is adapted to grow in equine dermal fibroblasts (ED), without damaging them with a titer of 1 μfu per cell (Malmquist virus). […] In the absence of inhibitors, EIAV proliferated in the ED cells reaching a plato 9-12 days after infection (FIG. 8). […] Development of cpe started 10-12 days after infection, reaching a maximum on days 15-17, followed by rapid cell death and exfoliation from the plastic bottom of the well.

Molecule	CE50 [1] [mM]	Ki [2] [mM]	IC50 [2] [mM]	further results
CO[C@@H]1O[C@H](CNC(C)=N)C(O)[C@H](O)[C@@H]1O (stereo partly drawn) [compound 11, Methyl 6-deoxy-6-(N-acetamidino)-α-D-mannopyranoside]	730	~1	11	
COC1OC(CNC(=O)C(N)CCCNC(=N)N)C(O)C(O)C1O [RMMP, Methyl 6-deoxy6-(N-L-argininamido)-α-D-mannopyranoside]	310	~0.16	1.8	
Dextran sulfate [reference compound]				binding of HIV-1 NL4-3 to MT-4 cells [3]: active
CO[C@@H]1O[C@H](C/C(N)=N/O)C(O)[C@H](O)[C@@H]1O (stereo partly drawn) [compound 9, Methyl 6-deoxy-α-D-mannoheptopyranuronic acid amidoxime]	>1500		> 50	
CO[C@H]1O[C@H](CNC(=N)N)[C@@H](O)[C@H](O)[C@@H]1O [compound 10, Methyl 6-deoxy-6-guanidino-α-D-mannopyranoside]	650	~1	9	
N=C(N)NCCCC(=O)NC[C@H]1O[C@H](O[C@H]2[C@H](O)[C@@H](O[C@H]3O[C@H](CO)[C@@H](O)[C@H](NC(=O)CCCNC(=N)N)[C@H]3O)[C@H](NC(=O)CCCNC(=N)N)C[C@@H]2NC(=O)CCCNC(=N)N)[C@H](O)[C@@H](O)[C@@H]1O [GB4K, Tetra-γ-(N-guanidino)butyramido-kanamycin A conjugate]				binding to TAR RNA in gel-shift experiments ([4]; up to 50 μM): did not exhibit binding; binding to TAR RNA in protection experiments ([5]; at 40 μM): did not exhibit binding; TAR RNA binding, overall assessment ([5]; footprinting studies): very weak TAR RNA binder; effect on the viral growth [6]: did not show any effect
CN[C@@H]1[C@@H](O)[C@@H](O[C@@H]2[C@@H](O)[C@H](O[C@H]3O[C@H](CNC(=O)[C@@H](N)CCCNC(=N)N)CC[C@H]3NC(=O)[C@@H](N)CCCNC(=N)N)[C@@H](NC(=O)[C@@H](N)CCCNC(=N)N)C[C@H]2NC(=O)[C@@H](N)CCCNC(=N)N)OC[C@]1(C)O [R4GC1a, Tetraargininamido-gentamicin (C1a) conjugate]				concentration from which a complex with TAR RNA is formed ([4]; 20 nM TAR RNA): ≥ 200 nM; CD50 ([4]; 50% binding, TAR RNA 20 nM): 200 nM; Kd ([4]; CD50 normalized to the reported conditions (Calnan et al., 1991 b), read-out: apparent Kd): ~20 nM
CO[C@H]1O[C@H](CC#N)[C@@H](O)[C@H](O)[C@@H]1O [compound 4, Methyl 6-deoxy-6-cyano-α-D-mannopyranoside]	1200		46	
CO[C@H]1O[C@H](CN)[C@@H](O)[C@H](O)[C@@H]1O [compound 7, Methyl 6-deoxy-6-amino-α-D-mannopyranoside]	>1500		56	
